In publication PMC7216583 (Parasites & Vectors, 2020):
Values joined by “and” are separate entries in the source; they are usually repeats but may differ in a detail not shown here. Identical values can stand only once. Like-named read-outs stand apart in the source and are kept apart here.

Key:
[1] = system: LAP; design: method as in S-inhibitor; settings: ref S-inhibitor; cited from earlier work
[2] = system: Toxoplasma gondii RH-2F tachyzoites; assay: microbe, parasite or virus in culture; settings: 72 h
[3] = molecular target: Aminopeptidase N; design: method as in S-inhibitor; settings: ref S-inhibitor; cited from earlier work
[4] = system: PuSA; design: method as in S-inhibitor; settings: ref S-inhibitor; cited from earlier work
[5] = in vitro; settings: human, Host viability (%) mean
[6] = system: Aβ secretion; design: method as in S-inhibitor; settings: ref S-inhibitor; read-out: EC50, decrease of Aβ secretion; cited from earlier work
[7] = system: BACE1; design: method as in S-inhibitor; settings: two values given; ref S-inhibitor; cited from earlier work
[8] = system: Tyro3; design: method as in S-inhibitor; settings: ref S-inhibitor; cited from earlier work
[9] = system: Ron; design: method as in S-inhibitor; settings: ref S-inhibitor; cited from earlier work
[10] = system: c-Met; design: method as in S-inhibitor; settings: ref S-inhibitor; cited from earlier work
[11] = system: Tie2; design: method as in S-inhibitor; settings: ref S-inhibitor; cited from earlier work
[12] = system: p38 MAPK; design: method as in S-inhibitor; settings: ref S-inhibitor; cited from earlier work
[13] = system: EGFR; design: method as in S-inhibitor; settings: ref S-inhibitor; cited from earlier work
[14] = system: Flt; design: method as in S-inhibitor; settings: ref S-inhibitor; cited from earlier work
[15] = system: HER2/ErbB2; design: method as in S-inhibitor; settings: ref S-inhibitor; cited from earlier work
[16] = system: VEGFR2; design: method as in S-inhibitor; settings: ref S-inhibitor; cited from earlier work
[17] = system: Akt2; design: method as in S-inhibitor; settings: ref S-inhibitor; cited from earlier work
[18] = system: Akt1; design: method as in S-inhibitor; settings: ref S-inhibitor; cited from earlier work
[19] = system: S6K; design: method as in S-inhibitor; settings: ref S-inhibitor; cited from earlier work
[20] = system: Akt3; design: method as in S-inhibitor; settings: ref S-inhibitor; cited from earlier work
[21] = molecular target: PDPK1; design: method as in S-inhibitor; settings: ref S-inhibitor; cited from earlier work
[22] = system: HCV NS3-4A serine protease; design: method as in S-inhibitor; settings: ref S-inhibitor; cited from earlier work
[23] = system: HSP90β; design: method as in S-inhibitor; settings: ref S-inhibitor; cited from earlier work
[24] = system: PDGFRβ; design: method as in S-inhibitor; settings: ref S-inhibitor; cited from earlier work
[25] = system: VEGFR1; design: method as in S-inhibitor; settings: ref S-inhibitor; cited from earlier work
[26] = system: PDGFRα; design: method as in S-inhibitor; settings: ref S-inhibitor; cited from earlier work
[27] = system: CDK7; design: method as in S-inhibitor; settings: ref S-inhibitor; cited from earlier work
[28] = system: CDK2; design: method as in S-inhibitor; settings: ref S-inhibitor; cited from earlier work
[29] = system: CDK5; design: method as in S-inhibitor; settings: ref S-inhibitor; cited from earlier work
[30] = system: hSGLT2; settings: read-out: EC50, hSGLT2; ref S-inhibitor; cited from earlier work
[31] = system: HCV NS5A; design: method as in S-inhibitor; settings: ref S-inhibitor; cited from earlier work
[32] = system: LPS-induced TNF-α release; design: method as in S-inhibitor; settings: ref S-inhibitor; cited from earlier work
[33] = system: MEK1; design: method as in library vendor description; settings: ref library vendor description; cited from earlier work
[34] = system: some cell lines; design: method as in S-inhibitor; settings: ref S-inhibitor; cited from earlier work
[35] = molecular target: CB2; design: method as in S-inhibitor; settings: ref S-inhibitor; cited from earlier work
[36] = molecular target: PLK1 (Polo-like kinase 1); design: method as in S-inhibitor; settings: ref S-inhibitor; cited from earlier work
[37] = system: PI3Kγ; settings: read-out: IC50, PI3Kγ; ref S-inhibitor; cited from earlier work
[38] = system: ATM; design: method as in S-inhibitor; settings: ref S-inhibitor; cited from earlier work
[39] = system: Aurora B; design: method as in S-inhibitor; settings: ref S-inhibitor; cited from earlier work
[40] = molecular target: T. brucei Aurora kinase-1 (TbAUK1); design: method as in S-inhibitor; settings: ref S-inhibitor; cited from earlier work
[41] = system: CDK5/p35; settings: read-out: IC50, CDK5/p35; ref S-inhibitor; cited from earlier work
[42] = system: CDK4/cyclin D1; settings: read-out: IC50, CDK4/Cyclin D1; ref S-inhibitor; cited from earlier work
[43] = system: CDK3/Cyclin E; settings: read-out: IC50, CDK3/Cyclin E; ref S-inhibitor; cited from earlier work
[44] = system: CDK1/cyclin B; design: method as in S-inhibitor; settings: ref S-inhibitor; cited from earlier work
[45] = system: CDK6/Cyclin D3; settings: read-out: IC50, CDK6/Cyclin D3; ref S-inhibitor; cited from earlier work
[46] = system: v-Abl; design: method as in library vendor description; settings: ref library vendor description; cited from earlier work
[47] = system: Toxoplasma gondii RH-2F tachyzoites; settings: preliminary screen, mean
[48] = system: CDK6; design: method as in S-inhibitor; settings: ref S-inhibitor; cited from earlier work
[49] = system: CDK4; design: method as in S-inhibitor; settings: ref S-inhibitor; cited from earlier work
[50] = system: MEK5; design: method as in S-inhibitor; settings: ref S-inhibitor; cited from earlier work
[51] = system: CFTR; design: method as in S-inhibitor; settings: ref S-inhibitor; cited from earlier work
[52] = read-out: Parasite inhibition (%) mean, preliminary screen, mean
[53] = read-out: Parasite inhibition (%) mean

## CC(C)C[C@@H](C(=O)N[C@H](C(=O)OC1CCCC1)c1ccccc1)[C@H](O)C(=O)NO [Tosedostat (CHR2797)]
[1]
  IC50: 100 nM
[2]; [52]
  inhibition of growth at 5 µM: 85.6%
[3]
  IC50: 220 nM
[4]
  IC50: 150 nM
[5]
  viability at 72 h: 88.8%

## C[C@@]1(c2cc(-c3cncnc3)c(F)cc2F)CCSC(N)=N1 [LY2811376]
[2]; [52]
  inhibition of growth at 5 µM: -19.7%
[6]
  EC50: ~300 nM
[7]
  IC50: […]

## CCOc1ccn(-c2ccc(F)cc2)c(=O)c1C(=O)Nc1ccc(Oc2ccnc(N)c2Cl)c(F)c1 [BMS 777607]
[8]
  IC50: 4.3 nM
[9]
  IC50: 1.8 nM
[10]
  IC50: 3.9 nM
[2]; [52]
  inhibition of growth at 5 µM: 80.6%
[5]
  viability at 72 h: 72%

## COc1ccc2cc(-c3[nH]c(-c4ccc([S+](C)[O-])cc4)nc3-c3ccncc3)ccc2c1 (stereo not shown) [Tie2 kinase inhibitor]
[11]
  IC50: 250 nM
[2]; [52]
  inhibition of growth at 5 µM: 13%

## CC(C)(C)Cn1c(N)nc2ccc(-c3[nH]c(C(C)(C)C)nc3-c3ccc(F)cc3)nc21 [LY2228820]
[12]
  IC50: 7 nM
[2]; [52]
  inhibition of growth at 5 µM: -12.7%

## CCN1CCN(Cc2ccc(-c3cc4c(N[C@H](C)c5ccccc5)ncnc4[nH]3)cc2)CC1 [AEE788 (NVP-AEE788)]
[13]
  IC50: 2 nM
[14]
  IC50: 59 nM
[15]
  IC50: 6 nM
[2]; [52]
  inhibition of growth at 5 µM: -2.1%
[16]
  IC50: 77 nM

## Clc1ccc(C2(c3ccc(-c4cn[nH]c4)cc3)CCNCC2)cc1 [AT7867]
[2]; [52]
  inhibition of growth at 5 µM: 46.4%
[17]
  IC50: 17 nM
[18]
  IC50: 32 nM
[19]
  IC50: 85 nM
[20]
  IC50: 47 nM

## CCCCCCCCCCCCc1ccc(S(=O)(=O)Nc2nncs2)cc1 [PHT-427]
[2]; [52]
  inhibition of growth at 5 µM: 35.7%
[21]
  Ki: 5200 nM

## CCC[C@H](NC(=O)[C@H]1[C@H]2CCC[C@H]2CN1C(=O)[C@@H](NC(=O)[C@@H](NC(=O)c1cnccn1)C1CCCCC1)C(C)(C)C)C(=O)C(=O)NC1CC1 [Telaprevir (VX-950)]
[2]; [52]
  inhibition of growth at 5 µM: 4.4%
[22]
  IC50: 350 nM

## CCNC(=O)c1cc2c(-c3cc(OCCN4CCCC4)c(Cl)cc3Cl)nc(N)nc2s1 [NVP-BEP800]
[2]; [53]
  inhibition of growth at 5 µM: 0.7%
[23]
  IC50: 58 nM

## CCCNC(=O)Nc1ccc(Oc2ncnc3cc(OC)c(OC)cc23)cc1Cl [KRN 633]
[2]; [52]
  inhibition of growth at 5 µM: 73.8%
[16]
  IC50: 160 nM
[24]
  IC50: 9850 nM
[5]
  viability at 72 h: 70.6%
[25]
  IC50: 170 nM
[26]
  IC50: 965 nM

## CC(C)CC(=O)Nc1[nH]nc2c1CN(C(=O)C1CCN(C)CC1)C2(C)C [PHA-793887]
[2]; [52]
  inhibition of growth at 5 µM: 0.6%
[27]
  IC50: 10 nM
[28]
  IC50: 8 nM
[29]
  IC50: 5 nM

## CCOc1ccc(Cc2cc([C@@H]3O[C@H](CO)[C@@H](O)[C@H](O)[C@H]3O)ccc2Cl)cc1 [Dapagliflozin]
[2]; [53]
  inhibition of growth at 5 µM: 1.9%
[30]
  EC50: 1.1 nM

## COC(=O)N[C@H](C(=O)N1CCC[C@H]1c1ncc(-c2ccc(-c3ccc(-c4cnc([C@@H]5CCCN5C(=O)[C@@H](NC(=O)OC)C(C)C)[nH]4)cc3)cc2)[nH]1)C(C)C [Daclatasvir (BMS-790052)]
[2]; [52]
  inhibition of growth at 5 µM: 3.9%
[31]
  EC50: 0.009 to 0.05 nM

## Nc1cccc2c1C(=O)N(C1CCC(=O)NC1=O)C2=O (stereo not shown) [Pomalidomide]
[2]; [52]
  inhibition of growth at 5 µM: 0.8%
[32]
  IC50: 13 nM

## Cn1cnc2c(F)c(Nc3ccc(Br)cc3Cl)c(C(=O)NOCCO)cc21 [AZD6244 (Selumetinib)]
[2]; [52]
  inhibition of growth at 5 µM: 0.6%
[33]
  IC50: 14 nM

## C#CCC(Cc1cnc2nc(N)nc(N)c2n1)c1ccc(C(=O)N[C@@H](CCC(=O)O)C(=O)O)cc1 (stereo partly shown) [Pralatrexate (Folotyn)]
[2]; [52]
  inhibition of growth at 5 µM: 20.4%
[34]
  IC50: < 300 nM

## CN1CCCCC1Cn1cc(C(=O)c2cc([N+](=O)[O-])ccc2I)c2ccccc21 (stereo not shown) [AM-1241]
[2]; [52]
  inhibition of growth at 5 µM: -8.8%
[35]
  Ki: 3.4 nM

## COc1ccc(S(=O)(=O)N(C(C)=O)c2ccccc2/C=C/c2cc[n+]([O-])cc2)cc1 [HMN-214]
[2]; [52]
  inhibition of growth at 5 µM: -11.6%
[36]
  IC50: 118 nM

## CC(=O)Nc1nc(C)c(-c2ccc(Cl)c(S(=O)(=O)NCCO)c2)s1 [PIK-93]
[2]; [53]
  inhibition of growth at 5 µM: 1.5%
[37]
  IC50: […]

## C[C@@H]1CN(CC(=O)Nc2ccc3c(c2)Cc2cccc(-c4cc(=O)cc(N5CCOCC5)o4)c2S3)C[C@H](C)O1 [KU-60019]
[2]; [52]
  inhibition of growth at 5 µM: 2%
[38]
  IC50: 6.3 nM

## CCS(=O)(=O)Nc1ccc2c(c1)/C(=C(/Nc1ccc(CN3CCCCC3)cc1)c1ccccc1)C(=O)N2 [Hesperadin]
[2]; [52]
  inhibition of growth at 5 µM: 66.8%
[39]
  IC50: 250 nM
[40]
  IC50: 40 nM

## O=C(NC1CCNCC1)c1[nH]ncc1NC(=O)c1c(Cl)cccc1Cl [AT7519]
[41]
  IC50: 13 nM
[2]; [52]
  inhibition of growth at 5 µM: -11.7%
[42]
  IC50: […]
[43]
  IC50: 360 nM
[44]
  IC50: […]
[45]
  IC50: 170 nM

## CN1CCN(CCOc2cc(OC3CCOCC3)c3c(Nc4c(Cl)ccc5c4OCO5)ncnc3c2)CC1 [Saracatinib (AZD0530)]
[2]; [52]
  inhibition of growth at 5 µM: 32.6%
[46]
  IC50: 30 nM

## CC(=O)c1c(C)c2cnc(Nc3ccc(N4CCNCC4)cn3)nc2n(C2CCCC2)c1=O.O=S(=O)(O)CCO [PD 0332991 (Palbociclib) Isethionate]
[47]
  Parasite inhibition (%) mean: 2.6%
[48]
  IC50: 16 nM
[49]
  IC50: […]

## BIX 02188
[47]
  Parasite inhibition (%) mean: 13.7%
[50]
  IC50: 4.3 nM

## Cc1ccc(NC(=O)C2(c3ccc4c(c3)OC(F)(F)O4)CC2)nc1-c1cccc(C(=O)O)c1 [VX-809]
[51]
  EC50: 100 nM
[2]; [52]
  inhibition of growth at 5 µM: 9.4%
